One data set concerns NL4-3 strain. The data set is described as follows: HIV-1 NL4-3 infection of HeLa-CD4-LTR-LacZ reporter cells, LacZ measured 72 h later. Particulars: Human immunodeficiency virus 1, NL43. The data set is classed as cell-based. From the text:
To understand the structure-function relationship of the dCA molecule with respect to our structural model, we synthesized and characterized the ability of 11 analogs of dCA to inhibit HIV infection (Table 2). […] We used HeLa-CD4 cells stably expressing the HIV-1 5′ LTR driving β-galactosidase production (HeLa-CD4-LTR-LacZ cells) as a reporter for the infection with isolate NL4-3. Table 2 summarizes the IC50, 50% cytotoxic concentration (CC50), and therapeutic index (TI) for each compound. The loss of dCA activity was directly associated with the positioning and the chemical environment of the azote on the F ring and the presence of oxygen in ring B. Moreover, the E-F “skeleton angle” and the distance between the A-B-C-D and F rings affected the activity by more than 50-fold (analogs 7 and 10).
The activity of Tat in HeLa-CD4-LTR-Luc and OM10.1 cells was verified by a transactivation assay as described in reference. In HeLa-CD4-LTR-LacZ cells, the assay was performed as described in reference. A detailed protocol is provided in Text S1.
Transactivation assay. In HeLa-CD4-LTR-Luc cells and OM10.1 cells. The activity of Tat was verified by a transactivation assay as previously reported (13). Briefly, HeLa-CD4-LTR-Luc cells and OM10.1 were plated at 1×10^5 and 8x10^5 cells per well of a 6-well plate respectively. The following day, recombinant Tat protein was added to the cells in culture media without serum and in the presence of 100 μM of Chloroquine. Five hours later, serum was added at 5 % to the culture media. Cells were lysed 24 hrs later, protein concentration determined by Bradford assay and luciferase activity was measured for HeLa-CD4-LTR-Luc cells. Results corresponding to luciferase activity per protein concentration of each sample are shown as relative light unit (RLU). As for the OM10.1 cells, RNA was extracted using the RNA extraction kit (Qiagen) and DNA contamination was removed using Turbo-DNAse kit (Ambion). First-strand cDNA was synthesized using SuperscriptIII^TM first-strand cDNA kit (Invitrogen) and random hexamers as first-strand primers. qRT-PCR was performed with an aliquot of cDNA as template, using LightCycler? 480 SYBR Green I Master in a 20 µL reaction according to the manufacturer’s instructions. The mRNAs from each sample were used as negative control. Primer sequences for GAPDH (13) and all viral mRNAs as previously described (59). In HeLa-CD4-LTR-LacZ cells. It was performed as previously described (10). Briefly, cells were plated at 1×10^4 cells per well of a 96-well plate. Twenty-four hrs later HIV-1 NL4-3 strain was added in the presence of testing compound or DMSO. Seventy-two hrs post infection, cells were disrupted in lysis buffer (60 mM Na2HPO4, 40 mM NaH2PO4, 10 mM KCl, 10 mM MgSO4, 2.5 mM EDTA, 50 mM ß-mercaptoethanol, 0.125 % Nonidet P-40) and a quantitative chlorophenol red-ß-D-galactopyranoside (CPRG)-based (Boehringer Mannheim) assay was performed. The cell extracts were incubated in a reaction buffer (0.9 M phosphate buffer [pH 7.4], 9 mM MgCl2, 11 mM ß-mercaptoethanol, 7 mM CPRG) until a red color developed and measured with an LP400 (Becton Dickinson) plate reader at 572 nm.

The next data set concerns the target T1, HIV Tat HXB3 (Human immunodeficiency virus type 1 group M subtype B, UniProt P69697).
T1 construct: pTatC6H-1 (NIH AIDS Reagent Program) plasmid encoding C-terminal 6xHistidine Tat1-86 (HXB3, subtype B); made in house; host or cells: E. coli BL21 (plasmid pTatC6H-1, NIH AIDS Reagent Program)
Briefly: Isothermal titration calorimetry of dCA binding to Tat. Details: species or system HIV-1. The source says:
Next, we studied the direct interaction of Tat with dCA using ITC. After gradual titration of Tat with dCA in the ITC cell, the integrated heat data of the dCA-Tat interaction were collected (Fig. 1G). This ITC titration curve fitted well with a single-site binding process with a nonlinear least-squares regression, allowing the determination of the association constant (Ka) and entropy (ΔS) and enthalpy (ΔH) changes, as well as the average number of binding sites (N). We determined a 1:1 binding stoichiometry with a Ka of ∼(9.39 ± 1.7) × 10^6 M^−1 (dissociation constant [Kd] = 100 nM). Moreover, dCA binds to Tat at 25°C with a negative (favorable) enthalpy of −3.5 ± 0.1 kcal mol^−1 and positive (favorable) entropy of +20.0 ± 0.5 cal mol^−1 K^−1. The favorable values of ΔH and ΔS are consistent with the characteristics of a combination of van der Waals, hydrophobic, and electrostatic interactions in the binding process. The difference between Tat/dCA affinity (ITC, 100 nM) and dCA inhibitory activity in cell-based assays (0.6 to 2 nM) (Table 2) ([10]) could be the result of the nature of the Tat-TAR feedback loop that amplifies activity in vivo; especially since the amount of Tat in vivo after infection is very low ([24]).
A detailed protocol for ITC is provided in Text S1.
Isothermal titration calorimetry. The measurements were conducted at 25 °C on a Microcal VP-ITC (Microcal, Inc.; Northampton MA). Titrations of HIV Tat HXB3 and HIV-1 TAR with dCA (or peptide, ^46SYGRKKRRQRRRPPQ^60) were done by injecting 250 μL into an isothermal sample chamber containing 1.5 mL HIV Tat HXB3 or HIV-1 TAR solution that was 10 μM in strand. Each experiment of this type was accompanied by the corresponding control experiment in which peptide or dCA injected into a solution of buffer alone. The duration of each injection was 8 s and the delay between the injections was 300 s and 180 s, the initial delay prior to the first injection was 300 s. Each injection generated a heat burst curve (microcalories/second vs. seconds) and the area under each curve was determined by integration [using the origin version 7.0 software (Microcal, Inc.; Northampton, MA)] to obtain the measure of the heat associated with that injection.

Details of data set [1]: method as in PMID 22817991, PMID 29045830, PMID 25613133. Conditions: cited from earlier work.

Where two headings read alike, the source gives them in different places.

T1 sequence (P69697 whole entry): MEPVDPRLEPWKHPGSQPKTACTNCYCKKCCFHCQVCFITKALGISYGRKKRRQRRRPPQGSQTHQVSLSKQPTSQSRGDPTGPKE

Take `CN(C)C1CC23CCC4(O2)C(=CCC2(C)C(c5ccc6ccncc6c5)=CCC24)C=C3C(O)C1O` (stereo not shown) [dCA, didehydro-cortistatin A]: the IC50 in the data set on NL4-3 strain (HeLa-CD4-LTR-LacZ cells infected with NL4-3, LacZ at 72 h, mean ± SD, n = 2 to 3, read-out: IC50) was 0.6 ± 0.3 nM; in the data set with NL4-3 strain (span of Table 2 and earlier value, read-out: dCA inhibitory activity in cell-based assays), 0.6 to 2 nM. Besides, at HIV Tat HXB3, the Kd was found to be 100 nM. The “enthalpy (ΔH)” value on HIV Tat HXB3 (ITC, 25°C) is -3.5 ± 0.1 kcal/mol. Also, the “entropy (ΔS)” value at HIV Tat HXB3 (ITC, 25°C) is reported as “+20.0 ± 0.5 cal mol^−1 K^−1”. Further, the “association constant (Ka)” value on HIV Tat HXB3 (ITC, 25°C, single-site fit) is on record as “(9.39 ± 1.7) × 10^6 M^−1”. Moreover, the solubility in water result in data set [1] is reported as “very soluble in water”.

The record behind these values is article PMC6368365, “Didehydro-Cortistatin A Inhibits HIV-1 by Specifically Binding to the Unstructured Basic Region of Tat” (mBio, 2019).
